These results are taken from PMC8802628, “Selective activation of PFKL suppresses the phagocytic oxidative burst” (Cell, 2021).

One data set concerns E. coli. The data set is described as follows: Phagocytosis assay: E. coli C.F.U. recovered from PMNs. To be noted: neutrophils pretreated 30 min. Type of data set: cell-based, human. Here is the method: Neutrophils (1 × 10^6) were cultured in 6-well tissue in RPMI medium containing DMSO vehicle, 0.5 μM NA-11, 0.5 μM NA-4, 100 μM Apocynin or 100 μM thionicotinamide (TN) for 30 min. E. coli grown in LB broth overnight (2 mL) were opsonized with human serum (1 mL pooled from three donors) for 1 h at room temperature. Opsonized bacteria were washed with PBS, resuspended in LB broth to an OD600of 0.1 and then added to cultured neutrophils at an MOI of 1 for 30 min. Cells were washed with medium three times and then cultured with 300 μg/mL gentamicin for 2 h to kill any extracellular bacteria. Cells were then washed again, twice with medium and once with PBS. To release phagocytosed bacteria, neutrophils were lysed in 0.05% saponin in PBS. Lysates were passed through a 25’ gauge needed several times and the number of viable phagocytosed bacteria was determined by colony counting.

The test system of data set [1] is PMNs. The data set is described as follows: ROS detection assay (ROS-Glo) in neutrophils. Particulars: over 2 h. The format is cell-based, human. The procedure:
ROS were measured using the ROS-Glo bioluminescent assay (Promega) for the direct detection of H2O2. Briefly, neutrophils (2 × 10^4) were plated in white 96-well plates (Greiner) in high glucose DMEM medium. Cells were cultured with DMSO vehicle, 0.5 μM NA-11, 5 μM LDC7559, 100 μM apocynin, or 200 μM thionicotinamide for 30 min, and then stimulated with 50 nM PMA or treated with 10 μg/mL zymosan beads, pre-opsonized in 20% serum for 30 min. Luminescence, after the addition of H2O2 substrate solution of 20 min, and then ROS-Glo detection solution for 20 min, was recorded on a plate reader (Envision).

Data set [2] concerns PMNs. The data set is described as follows: Phagocytosis of zymosan particles by PMNs. The format is cell-based, human. Particulars: neutrophils, zymosan 2 h. Here is the method: Figure S7. NA-11 activates PFKL to prevent the oxidative burst and impair neutrophil defenses, related to Figures 4 and 6
(A) PFK1 activity in PMN lysates. Cells were pretreated with 0.5 mM NA-11, 5 mM LDC7559, 100 mM apocynin, 200 mM thionicotinamid e (TN), 1 mM MEK inhibitor U0126, or DMSO vehicle for 30 min, or 1 mM proteasome inhibitor bortezomib for 1 h, and then activated with 50 nM PMA for 30 min where indicated. Bars represent the mean ± s.d. of cells from 3 donors. (B) NADH:NAD+ ratio in PMA-activated PMNs. Cells were pretreated with 0.5 mM NA-11 or DMSO vehicle for 30 min, and then activated with 50 nM PMA for 30 min. Data are the mean ± s.d. of cells from 3 donors. (C) Immunolabeling of citrullinated histone H3 (magenta) and myeloperoxidase (red) in PMNs pretreated with 0.5 mM NA-11 or DMSO vehicle for 30 min and then stimulated for 4 h with 50 nM PMA, 10 mg/mL extracellular LPS, 0.5 mg/mL cholesterol crystals, or 25 mM nigericin. Chromatin is stained green. Scale bar, […]. Results are representative of 3 independent experiments.
(D) Fluorescence micrographs of PMNs pretreated with 0.5 mM NA-11, 200 mM thionicotinamide (TN), 0.5 mM NA-4, or DMSO vehicle for 30 min, and then incubated with serum-opsonized Texas Red-conjugated zymosan particles (10 mg/mL) for 2 h. […]

Substrate in data set [3]: O=C(CO)[C@@H](O)[C@H](O)[C@H](O)COP(=O)(O)O
The data set is described as follows: Recombinant PFKM activity assay. The format is biochemical, human. Particulars: other: PFKM wild type, pH 7.0, 250 μM ATP, 25.0 °C. An excerpt:
(§1) Recombinant N-terminal His-tagged human PFKL (NP_002617), PFKM (NP_000280), and PFKP (NM_002627.4) were generated as described ([Webb et al., 2015], [2017]). Point mutants of PFK1 were generated using the QuikChange Lightning kit (Aligent).
(§2) His-tagged PFK1 was expressed and purified as described with slight modifications ([Webb et al., 2015], [2017]). Briefly, baculovirus was generated using the Bac-to-Bac Expression system (Invitrogen). PFK1 was expressed in 2-5 × 10^6 sf9 cells at a multiplicity of infection of two for 48 h. […] Protein was quantified using a Bradford Protein Assay kit (ThermoFisher Scientific), and aliquotes frozen in liquid nitrogen for storage at −80°C.
(§3) PFK1 activity was determined using the rate of FBP production via an auxiliary enzyme assay adapted to a 96-well format ([Brüser et al., 2012]; [Webb et al., 2015]). […] For assays containing FBP, the rate of ADP production was determined using the auxiliary enzymes pyruvate kinase (PK) and lactate dehydrogenase (LDH) (MilliporeSigma) in a buffer containing 250 μM phosphoenolpyruvic acid, […] NADH, 50 mM HEPES pH 7.5, 100 mM KCl, 1 mM DTT, and effector concentrations as described in the text. […] Absorbance at 340 nm was measured using a Varioskan LUX Multimode microplate reader (ThermoFisher). […]

Substrate in data set [4]: O=C(CO)[C@@H](O)[C@H](O)[C@H](O)COP(=O)(O)O
The experiment in a line: Recombinant PFKM+pocket activity assay. Type of data set: biochemical, human. Particulars: other: PFKM+pocket, pH 7.0, 250 μM ATP, 25.0 °C.
Text: as §1, §2, §3

Substrate in data set [5]: O=C(CO)[C@@H](O)[C@H](O)[C@H](O)COP(=O)(O)O
The experiment in a line: Recombinant PFKL3Mut activity assay. Type of data set: biochemical, human. To be noted: other: PFKL3Mut, pH 7.5, 225 μM ATP, 25.0 °C.
Text: as §1, §2, §3

In the case of `NC(=S)c1cccnc1` [TN, thionicotinamide, reference compound], the “killing of phagocytosed bacteria (bacterial colonies recovered)” value in the data set with E. coli is recorded as “less efficient killers of phagocytosed bacteria”. Moreover, the “ROS production during phagocytosis of opsonized zymosan” value in the data set with PMNs [1] is listed as “kept ROS production at basal levels”. For the same molecule, the “phagocytosis (intracellular zymosan particles)” value in the data set on PMNs [2] was “neither NA-11 nor TN affected phagocytosis”.

B1: human PFKM (Homo sapiens) (protein)
chain: MTHEEHHAAKTLGIGKAIAVLTSGGDAQGMNAAVRAVVRVGIFTGARVFFVHEGYQGLVDGGDHIKEATWESVSMMLQLGGTVIGSARCKDFREREGRLRAAYNLVKRGITNLCVIGGDGSLTGADTFRSEWSDLLSDLQKAGKITDEEATKSSYLNIVGLVGSIDNDFCGTDMTIGTDSALHRIMEIVDAITTTAQSHQRTFVLEVMGRHCGYLALVTSLSCGADWVFIPECPPDDDWEEHLCRRLSETRTRGSRLNIIIVAEGAIDKNGKPITSEDIKNLVVKRLGYDTRVTVLGHVQRGGTPSAFDRILGSRMGVEAVMALLEGTPDTPACVVSLSGNQAVRLPLMECVQVTKDVTKAMDEKKFDEALKLRGRSFMNNWEVYKLLAHVRPPVSKSGSHTVAVMNVGAPAAGMNAAVRSTVRIGLIQGNRVLVVHDGFEGLAKGQIEEAGWSYVGGWTGQGGSKLGTKRTLPKKSFEQISANITKFNIQGLVIIGGFEAYTGGLELMEGRKQFDELCIPFVVIPATVSNNVPGSDFSVGADTALNTICTTCDRIKQSAAGTKRRVFIIETMGGYCGYLATMAGLAAGADAAYIFEEPFTIRDLQANVEHLVQKMKTTVKRGLVLRNEKCNENYTTDFIFNLYSEEGKGIFDSRKNVLGHMQQGGSPTPFDRNFATKMGAKAMNWMSGKIKESYRNGRIFANTPDSGCVLGMRKRALVFQPVAELKDQTDFEHRIPKEQWWLKLRPILKILAKYEIDLDTSDHAHLEHITRKRSGEAAV
notes: made in house; host or cells: Sf9 insect cells (baculovirus)
The Km is the concentration of substrate that gives half-maximal velocity. With B1, the Michaelis-Menten constant (Km) in data set [3] turned out to be 610 ± 50 µM.

B2: PFKM+pocket (R315 to lysine) (Homo sapiens; R315K) (protein)
chain: MTHEEHHAAKTLGIGKAIAVLTSGGDAQGMNAAVRAVVRVGIFTGARVFFVHEGYQGLVDGGDHIKEATWESVSMMLQLGGTVIGSARCKDFREREGRLRAAYNLVKRGITNLCVIGGDGSLTGADTFRSEWSDLLSDLQKAGKITDEEATKSSYLNIVGLVGSIDNDFCGTDMTIGTDSALHRIMEIVDAITTTAQSHQRTFVLEVMGRHCGYLALVTSLSCGADWVFIPECPPDDDWEEHLCRRLSETRTRGSRLNIIIVAEGAIDKNGKPITSEDIKNLVVKRLGYDTRVTVLGHVQRGGTPSAFDRILGSKMGVEAVMALLEGTPDTPACVVSLSGNQAVRLPLMECVQVTKDVTKAMDEKKFDEALKLRGRSFMNNWEVYKLLAHVRPPVSKSGSHTVAVMNVGAPAAGMNAAVRSTVRIGLIQGNRVLVVHDGFEGLAKGQIEEAGWSYVGGWTGQGGSKLGTKRTLPKKSFEQISANITKFNIQGLVIIGGFEAYTGGLELMEGRKQFDELCIPFVVIPATVSNNVPGSDFSVGADTALNTICTTCDRIKQSAAGTKRRVFIIETMGGYCGYLATMAGLAAGADAAYIFEEPFTIRDLQANVEHLVQKMKTTVKRGLVLRNEKCNENYTTDFIFNLYSEEGKGIFDSRKNVLGHMQQGGSPTPFDRNFATKMGAKAMNWMSGKIKESYRNGRIFANTPDSGCVLGMRKRALVFQPVAELKDQTDFEHRIPKEQWWLKLRPILKILAKYEIDLDTSDHAHLEHITRKRSGEAAV
notes: as for B1
For B2, in data set [4], the Km is 1410 ± 80 µM.

B3: PFKL (K315R, V545L, and V582M), PFKL3Mut (Homo sapiens; K315R/V545L/V582M) (protein)
chain: MAAVDLEKLRASGAGKAIGVLTSGGDAQGMNAAVRAVTRMGIYVGAKVFLIYEGYEGLVEGGENIKQANWLSVSNIIQLGGTIIGSARCKAFTTREGRRAAAYNLVQHGITNLCVIGGDGSLTGANIFRSEWGSLLEELVAEGKISETTARTYSHLNIAGLVGSIDNDFCGTDMTIGTDSALHRIMEVIDAITTTAQSHQRTFVLEVMGRHCGYLALVSALASGADWLFIPEAPPEDGWENFMCERLGETRSRGSRLNIIIIAEGAIDRNGKPISSSYVKDLVVQRLGFDTRVTVLGHVQRGGTPSAFDRILSSRMGMEAVMALLEATPDTPACVVTLSGNQSVRLPLMECVQMTKEVQKAMDDKRFDEATQLRGGSFENNWNIYKLLAHQKPPKEKSNFSLAILNVGAPAAGMNAAVRSAVRTGISHGHTVYVVHDGFEGLAKGQVQEVGWHDVAGWLGRGGSMLGTKRTLPKGQLESIVENIRIYGIHALLVVGGFEAYEGVLQLVEARGRYEELCIVMCVIPATISNNVPGTDFSLGSDTALNAAMESCDRIKQSASGTKRRVFIVETMGGYCGYLATMTGIAVGADAAYVFEDPFNIHDLKVNVEHMTEKMKTDIQRGLVLRNEKCHDYYTTEFLYNLYSSEGKGVFDCRTNVLGHLQQGGAPTPFDRNYGTKLGVKAMLWLSEKLREVYRKGRVFANAPDSACVIGLKKKAVAFSPVTELKKDTDFEHRMPREQWWLSLRLMLKMLAQYRISMAAYVSGELEHVTRRTLSMDKGF
notes: as for B1
For B3, the Michaelis constant (Km) in data set [5] was 570 ± 60 µM.
